Source: ChEMBL document CHEMBL1146065, “Structure-based optimization of azole antifungal agents by CoMFA, CoMSIA, and molecular docking” (2006)
Converted amounts (≈) assume the structure as drawn.

What was measured:
Format in all cases: functional
[1] = tested on: Fonsecaea pedrosoi; experiment: Antifungal activity against Fonsecaea pedrosoi
[2] = tested on: Candida tropicalis; experiment: Antifungal activity against Candida tropicalis
[3] = tested on: Aspergillus fumigatus; experiment: Antifungal activity against Aspergillus fumigatus
[4] = tested on: Candida albicans; experiment: Antifungal activity against Candida albicans
[5] = tested on: Trichophyton rubrum; experiment: Antifungal activity against Trichophyton rubrum
[6] = tested on: Candida parapsilosis; experiment: Antifungal activity against Candida parapsilosis; conditions: Lodderomyces parapsilosis
[7] = tested on: Sporothrix schenckii; experiment: Antifungal activity against Sporothrix schenckii
[8] = tested on: Cryptococcus neoformans; experiment: Antifungal activity against Cryptococcus neoformans
[9] = tested on: Microsporum; experiment: Antifungal activity against Microsporum lanosum

Compound | MIC80 [1] [µg/mL] | MIC80 [2] [µg/mL] | MIC80 [3] [µg/mL] | MIC80 [4] [µg/mL] | MIC80 [5] [µg/mL] | MIC80 [6] [µg/mL] | MIC80 [7] [µg/mL] | MIC80 [8] [µg/mL] | MIC80 [9] [µg/mL]
Cc1ccc(C(=O)Cn2ncn(-c3ccc(CN(C)CC(O)(Cn4cncn4)c4ccc(F)cc4F)cc3)c2=O)c(Cl)c1 (stereo not drawn) | 1 (≈ 1.64 µM) | 0.0625 (≈ 0.103 µM) | 32 (≈ 52.6 µM) | 0.125 (≈ 0.206 µM) | 64 (≈ 105 µM) | 0.5 (≈ 0.822 µM) | 64 (≈ 105 µM) | 64 (≈ 105 µM) | 
CN(Cc1ccccc1[N+](=O)[O-])CC(O)(Cn1cncn1)c1ccc(F)cc1F (stereo not drawn) | 1 (≈ 2.48 µM) | 0.25 (≈ 0.62 µM) | 4 (≈ 9.92 µM) | 2 (≈ 4.96 µM) | 0.25 (≈ 0.62 µM) | 2 (≈ 4.96 µM) | 64 (≈ 159 µM) | 0.25 (≈ 0.62 µM) | 
CN(Cc1ccc(NC(=O)c2ccc(Cl)cc2)cc1)CC(O)(Cn1cncn1)c1ccc(F)cc1F (stereo not drawn) | ≤ 0.125 | 0.016 (≈ 0.0313 µM) | 32 (≈ 62.5 µM) | 0.016 (≈ 0.0313 µM) | ≤ 0.125 | 0.031 (≈ 0.0606 µM) |  | 0.25 (≈ 0.488 µM) | 8 (≈ 15.6 µM)
CN(Cc1ccc(-n2cnn(CC(=O)c3ccc(C(C)(C)C)cc3)c2=O)cc1)CC(O)(Cn1cncn1)c1ccc(F)cc1F (stereo not drawn) | 2 (≈ 3.25 µM) | 0.5 (≈ 0.812 µM) | 64 (≈ 104 µM) | 0.0625 (≈ 0.102 µM) | 64 (≈ 104 µM) | 2 (≈ 3.25 µM) | 64 (≈ 104 µM) | 32 (≈ 52 µM) | 
CN(Cc1ccc(NC(=O)c2ccc(I)cc2)cc1)CC(O)(Cn1cncn1)c1ccc(F)cc1F (stereo not drawn) | ≤ 0.125 | 0.25 (≈ 0.414 µM) | > 64 | 0.0625 (≈ 0.104 µM) | ≤ 0.125 | 0.5 (≈ 0.829 µM) |  | ≤ 0.031 | ≤ 0.125
CC(C)c1ccc(C(=O)Cn2ncn(-c3ccc(CN(C)CC(O)(Cn4cncn4)c4ccc(F)cc4F)cc3)c2=O)cc1 (stereo not drawn) | 0.125 (≈ 0.208 µM) | 0.125 (≈ 0.208 µM) | 32 (≈ 53.2 µM) | 0.004 (≈ 0.00665 µM) | 1 (≈ 1.66 µM) | 0.06 (≈ 0.0997 µM) | 64 (≈ 106 µM) | 1 (≈ 1.66 µM) | 
CN(Cc1cccc(C(F)(F)F)c1)CC(O)(Cn1cncn1)c1ccc(F)cc1F (stereo not drawn) | 1 (≈ 2.35 µM) | 0.25 (≈ 0.586 µM) | 64 (≈ 150 µM) | 0.032 (≈ 0.075 µM) | 8 (≈ 18.8 µM) | 4 (≈ 9.38 µM) | 64 (≈ 150 µM) | 0.5 (≈ 1.17 µM) | 

Second part, the molecule after the results:

MIC80 [1] [µg/mL] | MIC80 [2] [µg/mL] | MIC80 [3] [µg/mL] | MIC80 [4] [µg/mL] | MIC80 [5] [µg/mL] | MIC80 [6] [µg/mL] | MIC80 [7] [µg/mL] | MIC80 [8] [µg/mL] | MIC80 [9] [µg/mL] | Compound
8 (≈ 13.6 µM) | 0.5 (≈ 0.851 µM) | 64 (≈ 109 µM) | 0.25 (≈ 0.425 µM) | 32 (≈ 54.5 µM) | 2 (≈ 3.4 µM) | 64 (≈ 109 µM) | 16 (≈ 27.2 µM) |  | CCc1ccc(C(=O)Cn2ncn(-c3ccc(CN(C)CC(O)(Cn4cncn4)c4ccc(F)cc4F)cc3)c2=O)cc1 (stereo not drawn)
0.25 (≈ 0.398 µM) | 0.125 (≈ 0.199 µM) | 16 (≈ 25.5 µM) | 0.004 (≈ 0.00636 µM) | 1 (≈ 1.59 µM) | 0.008 (≈ 0.0127 µM) | 64 (≈ 102 µM) | 0.125 (≈ 0.199 µM) |  | CN(Cc1ccc(-n2cnn(Cc3ccc(F)cc3Br)c2=O)cc1)CC(O)(Cn1cncn1)c1ccc(F)cc1F (stereo not drawn)
0.25 (≈ 0.421 µM) | 0.0625 (≈ 0.105 µM) | 64 (≈ 108 µM) | 0.004 (≈ 0.00673 µM) | 4 (≈ 6.73 µM) | 0.03 (≈ 0.0505 µM) | 64 (≈ 108 µM) | 2 (≈ 3.37 µM) |  | CN(Cc1ccc(-n2cnn(CC(=O)c3ccc(Cl)cc3)c2=O)cc1)CC(O)(Cn1cncn1)c1ccc(F)cc1F (stereo not drawn)
0.25 (≈ 0.398 µM) | 0.25 (≈ 0.398 µM) | 32 (≈ 50.9 µM) | 0.002 (≈ 0.00318 µM) | 2 (≈ 3.18 µM) | 0.008 (≈ 0.0127 µM) | 16 (≈ 25.5 µM) | 0.5 (≈ 0.796 µM) |  | CN(Cc1ccc(-n2cnn(Cc3cc(F)ccc3Br)c2=O)cc1)CC(O)(Cn1cncn1)c1ccc(F)cc1F (stereo not drawn)
0.125 (≈ 0.208 µM) | 0.0625 (≈ 0.104 µM) | 16 (≈ 26.7 µM) | 0.002 (≈ 0.00334 µM) | 0.5 (≈ 0.834 µM) | 0.008 (≈ 0.0133 µM) | 64 (≈ 107 µM) | 0.125 (≈ 0.208 µM) |  | CN(Cc1ccc(-n2cnn(Cc3cccc(C(F)(F)F)c3)c2=O)cc1)CC(O)(Cn1cncn1)c1ccc(F)cc1F (stereo not drawn)
4 (≈ 6.94 µM) | 0.0625 (≈ 0.108 µM) | 64 (≈ 111 µM) | 0.0625 (≈ 0.108 µM) | 16 (≈ 27.8 µM) | 0.25 (≈ 0.434 µM) | 64 (≈ 111 µM) | 16 (≈ 27.8 µM) |  | CN(Cc1ccc(-n2cnn(Cc3ccc([N+](=O)[O-])cc3)c2=O)cc1)CC(O)(Cn1cncn1)c1ccc(F)cc1F (stereo not drawn)
0.125 (≈ 0.199 µM) | 0.0625 (≈ 0.0995 µM) | 4 (≈ 6.36 µM) | 0.002 (≈ 0.00318 µM) | 0.5 (≈ 0.796 µM) | 0.008 (≈ 0.0127 µM) | 64 (≈ 102 µM) | 0.125 (≈ 0.199 µM) |  | CN(Cc1ccc(-n2cnn(Cc3ccc(Br)cc3F)c2=O)cc1)CC(O)(Cn1cncn1)c1ccc(F)cc1F (stereo not drawn)
0.125 (≈ 0.203 µM) | 0.0312 (≈ 0.0508 µM) | 8 (≈ 13 µM) | 0.002 (≈ 0.00325 µM) | 0.25 (≈ 0.406 µM) | 0.008 (≈ 0.013 µM) | 32 (≈ 52 µM) | 0.016 (≈ 0.026 µM) |  | CN(Cc1ccc(-n2cnn(Cc3ccc(OC(F)(F)F)cc3)c2=O)cc1)CC(O)(Cn1cncn1)c1ccc(F)cc1F (stereo not drawn)
0.25 (≈ 0.458 µM) | 0.5 (≈ 0.916 µM) | 32 (≈ 58.7 µM) | 0.002 (≈ 0.00367 µM) | 1 (≈ 1.83 µM) | 0.125 (≈ 0.229 µM) | 64 (≈ 117 µM) | 1 (≈ 1.83 µM) |  | Cc1ccc(Cn2ncn(-c3ccc(CN(C)CC(O)(Cn4cncn4)c4ccc(F)cc4F)cc3)c2=O)cc1 (stereo not drawn)
